Laboratory results from US20240261417A1, “SOS1 DEGRADING AGENT AND PREPARATION METHOD THEREFOR AND APPLICATION THEREOF” (SHANGHAI LEADINGTAC PHARMACEUTICAL CO. LTD., priority 2021, published 2024).

Molecular target: T1, SOS1 protein (Homo sapiens, UniProt Q07889)
T1 sequence (Q07889 1-1333): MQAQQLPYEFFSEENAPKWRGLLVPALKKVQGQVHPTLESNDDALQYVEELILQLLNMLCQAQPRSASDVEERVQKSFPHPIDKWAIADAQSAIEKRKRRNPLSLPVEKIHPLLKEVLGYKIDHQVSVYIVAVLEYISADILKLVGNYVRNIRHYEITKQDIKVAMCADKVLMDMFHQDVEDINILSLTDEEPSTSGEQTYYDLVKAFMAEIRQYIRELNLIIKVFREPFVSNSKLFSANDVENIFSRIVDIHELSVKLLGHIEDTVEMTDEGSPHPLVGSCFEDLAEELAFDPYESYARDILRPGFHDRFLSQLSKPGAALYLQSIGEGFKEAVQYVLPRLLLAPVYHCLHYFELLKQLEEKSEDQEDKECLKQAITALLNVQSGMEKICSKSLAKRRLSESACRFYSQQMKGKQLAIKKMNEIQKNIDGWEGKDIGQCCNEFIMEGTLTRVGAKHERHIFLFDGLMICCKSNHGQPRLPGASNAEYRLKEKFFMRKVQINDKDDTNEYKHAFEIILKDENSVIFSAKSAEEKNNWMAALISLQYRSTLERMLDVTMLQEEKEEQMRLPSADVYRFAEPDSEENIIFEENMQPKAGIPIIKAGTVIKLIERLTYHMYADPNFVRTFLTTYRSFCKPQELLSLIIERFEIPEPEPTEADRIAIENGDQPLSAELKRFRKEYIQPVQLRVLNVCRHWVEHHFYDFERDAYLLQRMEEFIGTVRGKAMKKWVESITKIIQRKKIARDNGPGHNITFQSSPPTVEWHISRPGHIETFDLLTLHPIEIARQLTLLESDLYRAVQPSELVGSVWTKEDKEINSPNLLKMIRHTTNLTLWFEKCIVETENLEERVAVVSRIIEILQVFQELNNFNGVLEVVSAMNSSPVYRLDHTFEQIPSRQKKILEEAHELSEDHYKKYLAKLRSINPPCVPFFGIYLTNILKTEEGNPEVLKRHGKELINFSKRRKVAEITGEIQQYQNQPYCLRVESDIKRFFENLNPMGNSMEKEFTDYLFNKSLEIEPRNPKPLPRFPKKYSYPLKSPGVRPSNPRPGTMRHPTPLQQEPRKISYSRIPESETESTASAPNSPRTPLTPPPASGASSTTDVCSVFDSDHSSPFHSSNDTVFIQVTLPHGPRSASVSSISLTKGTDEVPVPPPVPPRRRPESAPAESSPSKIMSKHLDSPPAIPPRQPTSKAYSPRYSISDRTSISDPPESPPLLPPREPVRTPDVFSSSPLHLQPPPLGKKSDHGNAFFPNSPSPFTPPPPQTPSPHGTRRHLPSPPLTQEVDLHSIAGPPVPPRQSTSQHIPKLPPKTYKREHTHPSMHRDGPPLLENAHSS
Assay: SOS1 degradation assay (Western blot), NCI-H358 cells
Type: cell-based
Design: The degradation of SOS1 by the compounds was investigated on KRAS G12C mutant human non-small cell lung cancer cells NCI-H358; host or cells: NCI-H358 (human cancer cell lines)
Settings: SOS1 degradation, NCI-H358 cells, 24 h, Western blot; for DC50: read-out: NCI-H358 (G12C) DC50; for Dmax: read-out: NCI-H358 (G12C) Dmax
How it was run: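 SOS1 degradation was assessed by densitometry of Western blots, relative to untreated controls, after 24 h compound exposure (0.03–3000 nM final, 37 °C, 5% CO2) of cells seeded at 5×10^5/well. Log concentration–response fitting gave DC50 and Dmax.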

SMILES	DC50	Dmax	NCI-H358 (G12C) Dmax
COc1cc2nc(C)nc(N[C@H](C)c3cc(N)cc(C(F)(F)F)c3)c2cc1[C@H]1CC[C@H](C(=O)N2CCN(CC3CCN(C(=O)COc4ccc(Cl)c(N5CCC(=O)NC5=O)c4)CC3)CC2)CC1 [Example 37, 1-(5-(2-(4-((4-((1R,4R)-4-(4-(((R)-1-(3-amino-5-(trifluoromethyl)phenyl)ethyl)amino)-7-methoxy-2-methylquinazolin-6-yl)cyclohexane-1-carbonyl)piperazin-1-yl)methyl)piperidin-1-yl)-2-oxoethoxy)-2-chlorophenyl)dihydropyrimidine-2,4(1H,3H)-dione]	1000 to 10000 nM	< 30%	–
COc1cc2nc(C)nc(N[C@H](C)c3cc(N)cc(C(F)(F)F)c3)c2cc1[C@H]1CC[C@H](C(=O)N2CCC(CCCN(C)C3CCN(Cc4ccc(Cl)c(N5CCC(=O)NC5=O)c4)CC3)CC2)CC1 [Example 38, 1-(5-((4-((3-(1-((1R,4R)-4-(4-(((R)-1-(3-amino-5-(trifluoromethyl)phenyl)ethyl)amino)-7-methoxy-2-methylquinazolin-6-yl)cyclohexane-1-carbonyl)piperidin-4-yl)propyl)(methyl)amino)piperidin-1-yl)methyl)-2-chlorophenyl)dihydropyrimidine-2,4(1H,3H)-dione]	1000 to 10000 nM	< 30%	–
COc1cc2nc(C)nc(N[C@H](C)c3cc(N)cc(C(F)(F)F)c3)c2cc1C1CCC(C(=O)N2CCC(CCOCC3CCN(C(=O)c4ccc5c(c4)C(=O)N(C4CCC(=O)NC4=O)C5=O)CC3)CC2)CC1 (stereo partly drawn) [Example 39, 5-(4-((2-(1-((1S,4S)-4-(4-(((R)-1-(3-amino-5-(trifluoromethyl)phenyl)ethyl)amino)-7-methoxy-2-methylquinazolin-6-yl)cyclohexane-1-carbonyl)piperidin-4-yl)ethoxy)methyl)piperidine-1-carbonyl)-2-(2,6-dioxopiperidin-3-yl)isoindoline-1,3-dione]	< 50 nM	80 to 100%	–
[2H]C1([2H])CC(OCC2CCN(C(=O)c3ccc(Cl)c(N4CCC(=O)NC4=O)c3)CC2)CC([2H])([2H])N1C(=O)[C@H]1CC[C@H](c2cc3c(N[C@H](C)c4cc(N)cc(C(F)(F)F)c4)nc(C)nc3cc2OC)CC1 [Example 40, 1-(5-(4-(((1-((1R,4R)-4-(4-(((R)-1-(3-amino-5-(trifluoromethyl)phenyl)ethyl)amino)-7-methoxy-2-methylquinazolin-6-yl)cyclohexane-1-carbonyl)piperidin-4-yl-2,2,6,6-d4)oxy)methyl)piperidine-1-carbonyl)-2-chlorophenyl)dihydropyrimidine-2,4(1H,3H)-dione]	1000 to 10000 nM	< 30%	–
COc1cc2nc(C)nc(N[C@H](C)c3cc(-c4c(Cl)cccc4CN(C)C)cs3)c2cc1[C@H]1CC[C@H](C(=O)N2CCC(CCOCC3CCN(c4ccc5c(c4)C(=O)N(C4CCC(=O)NC4=O)C5=O)CC3)CC2)CC1 (stereo partly shown) [Example 41]	100 to 500 nM	80 to 100%	–
Cc1nc(N[C@H](C)c2cc(N)cc(C(F)(F)F)c2)c2cc(-c3ccn(CCCN(C)CC4CCC5(CC4)CCN(C(=O)c4ccc(Cl)c(N6CCC(=O)NC6=O)c4)CC5)c(=O)c3)c(C)cc2n1 [Example 42, (R)-1-(5-(9-(((3-(4-(4-((1-(3-amino-5-(trifluoromethyl)phenyl)ethyl)amino)-2,7-dimethylquinazolin-6-yl)-2-oxopyridin-1(2H)-yl)propyl)(methyl)amino)methyl)-3-azaspiro[5.5]undecane-3-carbonyl)-2-chlorophenyl)dihydropyrimidine-2,4(1H,3H)-dione]	1000 to 10000 nM	30 to 50%	–
COc1cc2nc(C)nc(N[C@H](C)c3cc(-c4ccccc4CN(C)C)cs3)c2cc1[C@H]1CC[C@H](C(=O)N2CCC(CCOCC3CCN(C(=O)c4ccc(Cl)c(N5CCC(=O)NC5=O)c4)CC3)CC2)CC1 [Example 48]	< 50 nM	80 to 100%	–
CNCc1ccccc1-c1csc([C@@H](C)Nc2nc(C)nc3cc(OC)c([C@H]4CC[C@H](C(=O)N5CCN(CC6CCC7(CC6)CCN(C(=O)c6ccc(F)c(N8CCC(=O)NC8=O)c6)CC7)CC5)CC4)cc23)c1 [Example 74, 1-(2-fluoro-5-(9-((4-((1R,4R)-4-(7-methoxy-2-methyl-4-(((R)-1-(4-(2-((methylamino)methyl)phenyl)thien-2-yl)ethyl)amino)quinazolin-6-yl)cyclohexane-1-carbonyl)piperazin-1-yl)methyl)-3-azaspiro[5.5]undecane-3-carbonyl)phenyl)dihydropyrimidine-2,4(1H,3H)-dione]	< 50 nM	80 to 100%	–
COc1cc2nc(C)nc(N[C@H](C)c3cc(N)cc(C(F)(F)F)c3)c2cc1[C@H]1CC[C@H](C(=O)N2CCC(COCC3CCN(C(=O)c4ccc(Cl)c(N5CCC(=O)NC5=O)c4)CC3)CC2)CC1 [Example 76, 1-(5-(4-(((1-((1R,4R)-4-(4-(((R)-1-(3-amino-5-(trifluoromethyl)phenyl)ethyl)amino)-7-methoxy-2-methylquinazolin-6-yl)cyclohexane-1-carbonyl)piperidin-4-yl)methoxy-d2)methyl)piperidine-1-carbonyl)-2-chlorophenyl)dihydropyrimidine-2,4(1H,3H)-dione]	< 50 nM	–	–
[2H]C([2H])(OCC1CCN(C(=O)c2ccc(Cl)c(N3CCC(=O)NC3=O)c2)CC1)C1CCN(C(=O)[C@H]2CC[C@H](c3cc4c(N[C@H](C)c5cc(N)cc(C(F)(F)F)c5)nc(C)nc4cc3OC)CC2)CC1 [Example 76, 1-(5-(4-(((1-((1R,4R)-4-(4-(((R)-1-(3-amino-5-(trifluoromethyl)phenyl)ethyl)amino)-7-methoxy-2-methylquinazolin-6-yl)cyclohexane-1-carbonyl)piperidin-4-yl)methoxy-d2)methyl)piperidine-1-carbonyl)-2-chlorophenyl)dihydropyrimidine-2,4(1H,3H)-dione]	–	–	B (when 50≤Dmax (%)<80, the level was B)
Cc1nc(N[C@H](C)c2cc(N)cc(C(F)(F)F)c2)c2cc(C3CCN(CC(=O)NCCC4CCC5(CC4)CCN(C(=O)c4ccc(Cl)c(N6CCC(=O)NC6=O)c4)CC5)CC3)ccc2n1 [Example 77, (R)-2-(4-(4-((1-(3-amino-5-(trifluoromethyl)phenyl)ethyl)amino)-2-methylquinazolin-6-yl)piperidin-1-yl)-N-(2-(3-(4-chloro-3-(2,4-dioxotetrahydropyrimidin-1(2H)-yl)benzoyl)-3-azaspiro[5.5]undecan-9-yl)ethyl)acetamide]	500 to 1000 nM	80 to 100%	–
Cc1nc(N[C@H](C)c2cc(N)cc(C(F)(F)F)c2)c2cc([C@H]3CC[C@H](C(=O)N4CCN(CC5CCC6(CC5)CCN(C(=O)c5ccc(Cl)c(N7CCC(=O)NC7=O)c5)CC6)CC4)CC3)ncc2n1 [Example 78, 1-(5-(9-((4-((1R,4R)-4-(4-(((R)-1-(3-amino-5-(trifluoromethyl)phenyl)ethyl)amino)-2-methylpyrido[3,4-d]pyrimidin-6-yl)cyclohexane-1-carbonyl)piperazin-1-yl)methyl)-3-azaspiro[5.5]undecane-3-carbonyl)-2-chlorophenyl)dihydropyrimidine-2,4(1H,3H)-dione]	100 to 500 nM	50 to 80%	–
